Where a name gives a salt, the structure may show the parent alone. Read-outs that look alike come from different tables or passages of the source.
How the values were obtained:
[1] = Pharmacokinetic Evaluation in Rats; type: in vivo; settings: rat, male SD rats, administered orally or intravenously, plasma up to 8 hours, LC/MS/MS; for bioavailability: oral, read-out: BA(%) (bioavailability); for clearance: read-out: CLtot (total clearance) (converted)
Protocol: Each compound was dissolved at a concentration of 0.5 mg/ml in PBS or in PBS containing 10% PEG. The compound was administered orally or intravenously to male SD rats (7 to 9 weeks old). Blood was collected from the tail vein at time points up to 8 hours after the administration, and blood plasma was collected by centrifugation from each obtained blood. The blood plasma was pretreated by using the solid-phase extraction method, and the concentration of the compound was analyzed with LC/MS/MS (ESI negative mode).
As the Comparative Compound, 2-[4-((3,5-dichlorobenzensulfonylamino)methyl)benzoylamino]-5-(4-(methyl-pyrimidin-2-ylamino)phenyl)pento-4-ene acid (XXI) described in WO 99/26923 was used.
[“BA” in Table 17 means bioavailability, and “CLtot” means total clearance.]

Jurkat cells = test: Measurement of Inhibitory Effect on Leukocyte Functions (adhesion of Jurkat cells to ligand-expressing cells or ligand-immobilized plate); type: cell-based; settings: Homo sapiens, 0.5 h, read-out: IC50 (adhesion of Jurkat cells)
Protocol: Jurkat cells which are a cell line originated from human acute T cell lymphoma were allowed to react with BCECF-AM at 37° C. for 20 minutes to fluorescently label the cells. The fluorescently labelled Jurkat cells were allowed to react with ligand-expressing cells or with a ligand-immobilized plate at 37° C. for 30 minutes. After removing non-adherent cells by washing, 1% NP40 was added to lyse the adherent cells, and fluorescence intensity was measured with Cytoflow 2300 (Millipore). From the obtained fluorescence intensity, the number of adherent cells was calculated. Each test compound was reacted with the Jurkat cells before the beginning of the adhesion reaction. In Table 18, the IC50 of each compound is shown.

[2] = test system: leukotriene B4 production by neutrophils; test: Measurement of Inhibitory Effect on Inflammatory Mediator Production by Leukocytes (ionomycin-induced leukotriene B4 in neutrophils); type: cell-based; settings: 0.5 h, human neutrophil suspension, 37° C. 30 minutes, EIA
Protocol: A mixture of human peripheral blood and physiological saline containing 3% dextran was left to stand for 30 minutes and then the upper layer was recovered. The upper layer was overlaid on Histopaque 1077 (SIGMA), and the resultant was centrifuged at 1400 rpm for 30 minutes. The supernatant was removed by aspiration and a buffer was added to the precipitate to prepare a neutrophil suspension (4×10^5 cells/mL). To the neutrophil suspension, ionomycin was added and the mixture was incubated at 37° C. for 30 minutes, followed by quantification of leukotriene B4 by EIA (Amersham, Biotrak EIA system). Each test compound was added to the neutrophil suspension before adding ionomycin. In Table 19, the IC50 of each compound is shown.

[3] = fluorescently labelled Jurkat cells, ligand-expressing cells or ligand-immobilized plate, 37° C. 30 minutes

For `CN(c1ccc(/C=C/CC(NC(=O)c2ccc(CNS(=O)(=O)c3cc(Cl)cc(Cl)c3)cc2)C(=O)O)cc1)c1ncccn1` (stereo not drawn) [Comparative Compound, 2-[4-((3,5-dichlorobenzensulfonylamino)methyl)benzoylamino]-5-(4-(methyl-pyrimidin-2-ylamino)phenyl)pento-4-ene acid, reference compound], the bioavailability [1] was 1.7% and the clearance [1] was 21.4 mL/min/kg.
In the case of `CCOC1(c2ccc(/C=C/CC(NC(=O)c3c(Cl)cccc3Cl)C(=O)OC)cc2)CCOCC1` (stereo not drawn) [Example 5, (E)-2-(2,6-Dichlorobenzamido)-5-[4-(4-ethoxytetrahydropyran-4-yl)-phenyl]pent-4-enoic acid methyl ester], the IC50 (Jurkat cells; [3]) is reported as 100 nM.
In the case of `CCOC1(c2ccc(/C=C/CC(NC(=O)c3c(Cl)cccc3Cl)C(=O)O)cc2)CCOCC1` (stereo not drawn) [Example 6, (E)-2-(2,6-Dichlorobenzamido)-5-[4-(4-ethoxytetrahydropyran-4-yl)-phenyl]pent-4-enoic acid], the bioavailability [1] is reported as 68.5%, the clearance [1] is reported as 19.8 mL/min/kg and the IC50 [2] is reported as 5630 nM.
`COCC1(c2ccc(/C=C/CC(NC(=O)c3c(Cl)cccc3Cl)C(=O)O)cc2)CCOCC1` (stereo not drawn) [Example 8, (E)-2-(2,6-Dichlorobenzamido)-5-[4-(tetrahydro-4-(methoxymethyl)-2H-pyran-4-yl)phenyl]pent-4-enoic acid sodium salt] gave an IC50 (Jurkat cells; [3]) of 69 nM.
With `COC1(c2ccc(/C=C/CC(NC(=O)c3c(Cl)cccc3Cl)C(=O)O)cc2)CCCOCC1` (stereo not drawn) [Example 10, (E)-2-(2,6-Dichlorobenzamido)-5-[4-(4-methoxyoxepan-4-yl)phenyl]pent-4-enoic acid sodium salt] the IC50 (Jurkat cells; [3]) was 220 nM.
Compound `O=C(NC(C/C=C/c1ccc(Oc2ncccn2)cc1)C(=O)O)c1c(Cl)cccc1Cl` (stereo not drawn) [Example 12, (E)-2-(2,6-Dichlorobenzamido)-5-[4-(pyrimidin-2-yloxy)phenyl]pent-4-enoic acid] has an IC50 (Jurkat cells; [3]) of 220 nM.
`CCN(c1ccc(/C=C/CC(NC(=O)c2c(Cl)cccc2Cl)C(=O)O)cc1)c1ncccn1` (stereo not drawn) [Example 24, (E)-2-(2,6-Dichlorobenzamido)-5-[4-(ethyl-pyrimidin-2-ylamino)phenyl]pent-4-enoic acid] showed a bioavailability [1] of 42.3%, a clearance [1] of 12.6 mL/min/kg and an IC50 (Jurkat cells; [3]) of 220 nM.
In the case of `COCCN(c1ccc(/C=C/CC(NC(=O)c2c(Cl)cccc2Cl)C(=O)O)cc1)c1ncccn1` (stereo not drawn) [Example 26, (E)-2-(2,6-Dichlorobenzamido)-5-[4-((2-methoxyethyl)-pyrimidin-2-ylamino)phenyl]pent-4-enoic acid sodium salt], the IC50 (Jurkat cells; [3]) is reported as 36 nM.
`O=C(NC(C/C=C/c1ccc(N(Cc2ccc(O)cc2)c2ncccn2)cc1)C(=O)O)c1c(Cl)cccc1Cl` (stereo not drawn) [Example 29, (E)-2-(2,6-Dichlorobenzamido)-5-[4-((4-hydroxy-benzyl)-pyrimidin-2-ylamino)phenyl]pent-4-enoic acid] gave an IC50 (Jurkat cells; [3]) of 41 nM.
`N#CCCN(c1ccc(/C=C/CC(NC(=O)c2c(Cl)cccc2Cl)C(=O)O)cc1)c1ncccn1` (stereo not drawn) [Example 31, (E)-5-[4-((2-Cyano-ethyl)-pyrimidin-2-yl-amino)-phenyl]-2-(2,6-dichlorobenzamido)-pent-4-enoic acid sodium salt] gave an IC50 (Jurkat cells; [3]) of 41 nM.
`O=C(NC(C/C=C/c1ccc(N(Cc2ccccc2)c2ncccn2)cc1)C(=O)O)c1c(Cl)cccc1Cl` (stereo not drawn) [Example 33, (E)-5-[4-(Benzyl-pyrimidin-2-yl-amino)-phenyl]-2-(2,6-dichlorobenzamido)-pent-4-enoic acid sodium salt] showed an IC50 [2] of 16300 nM.
With `COc1ccc(CN(c2ccc(/C=C/CC(NC(=O)c3c(Cl)cccc3Cl)C(=O)O)cc2)c2ncccn2)cc1` (stereo not drawn) [Example 35, (E)-2-(2,6-Dichlorobenzamido)-5-[4-((4-methoxy-benzyl)-pyrimidin-2-ylamino)phenyl]pent-4-enoic acid sodium salt] the IC50 (Jurkat cells; [3]) was 88 nM.
Compound `CCCCN(c1ccc(/C=C/CC(NC(=O)c2c(Cl)cccc2Cl)C(=O)O)cc1)c1ncccn1` (stereo not drawn) [Example 37, (E)-5-(4-Butyl-pyrimidin-2-yl-amino)-phenyl]-2-(2,6-dichlorobenzamido)-pent-4-enoic acid sodium salt] has an IC50 (Jurkat cells; Jurkat) of 160 nM.
For `O=C(NC(C/C=C/c1ccc(N(Cc2cccnc2)c2ncccn2)cc1)C(=O)O)c1c(Cl)cccc1Cl` (stereo not drawn) [Example 39, (E)-2-(2,6-Dichlorobenzamido)-5-[4-(pyridin-3-ylmethyl-pyrimidin-2-ylamino)phenyl]pent-4-enoic acid sodium salt], the IC50 (Jurkat cells; [3]) was 71 nM.
With `O=C(NC(C/C=C/c1ccc(N(Cc2cscn2)c2ncccn2)cc1)C(=O)O)c1c(Cl)cccc1Cl` (stereo not drawn) [Example 41, (E)-2-(2,6-Dichlorobenzamido)-5-[4-(pyrimidin-2-yl-thiazol-4-ylmethyl-amino)phenyl]pent-4-enoic acid sodium salt] the IC50 (Jurkat cells; [3]) was 950 nM.
Work on `COc1cc(OC)nc(N(C)c2ccc(/C=C/CC(NC(=O)c3c(Cl)cccc3Cl)C(=O)O)cc2)n1` (stereo not drawn) [Example 45, (E)-2-(2,6-Dichlorobenzamido)-5-[4-((4,6-dimethoxy-pyrimidin-2-yl)-methyl-amino)phenyl]pent-4-enoic acid] yielded an IC50 (Jurkat cells; [3]) of 890 nM.
`O=C(NC(C/C=C/c1ccc(N(c2ccccc2)c2ncccn2)cc1)C(=O)O)c1c(Cl)cccc1Cl` (stereo not drawn) [Example 47, (E)-2-(2,6-Dichlorobenzamido)-5-[4-(phenyl-pyrimidin-2-ylamino)phenyl]pent-4-enoic acid sodium salt] showed an IC50 (Jurkat cells; [3]) of 930 nM.
In the case of `O=C(NC(C/C=C/c1ccc(N(c2ncccn2)C2CCOCC2)cc1)C(=O)O)c1c(Cl)cccc1Cl` (stereo not drawn) [Example 49, (E)-2-(2,6-Dichlorobenzamido)-5-[4-(pyrimidin-2-yl-(tetrahydro-pyran-4-yl)-amino)phenyl]pent-4-enoic acid sodium salt], the IC50 (Jurkat cells; [3]) is reported as 79 nM.
With `O=C(NC(C/C=C/c1ccc(N(CC2CC2)c2ncccn2)cc1)C(=O)O)c1c(Cl)cccc1Cl` (stereo not drawn) [Example 53, (E)-5-[4-(Cyclopropylmethyl-pyrimidin-2-ylamino)phenyl]-2-(2,6-dichlorobenzamido)pent-4-enoic acid sodium salt] the IC50 (Jurkat cells; Jurkat) was 120 nM.
Work on `CC(C)CN(c1ccc(/C=C/CC(NC(=O)c2c(Cl)cccc2Cl)C(=O)O)cc1)c1ncccn1` (stereo not drawn) [Example 55, (E)-2-(2,6-Dichlorobenzamido)-5-[4-(isobutyl-pyrimidin-2-ylamino)phenyl]pent-4-enoic acid sodium salt] yielded an IC50 (Jurkat cells; Jurkat) of 420 nM.
For `CCCN(c1ccc(/C=C/CC(NC(=O)c2c(Cl)cccc2Cl)C(=O)O)cc1)c1ncccn1` (stereo not drawn) [Example 57, (E)-2-(2,6-Dichlorobenzamido)-5-[4-(propyl-pyrimidin-2-ylamino)phenyl]pent-4-enoic acid], the IC50 (Jurkat cells; [3]) was 110 nM.
With `O=C(NC(C/C=C/c1ccc(N(Cc2ccncc2)c2ncccn2)cc1)C(=O)O)c1c(Cl)cccc1Cl` (stereo not drawn) [Example 59, (E)-2-(2,6-Dichlorobenzamido)-5-[4-(pyridin-4-ylmethyl-pyrimidin-2-ylamino)phenyl]pent-4-enoic acid] the IC50 (Jurkat cells; [3]) was 43 nM.
With `O=C(NC(C/C=C/c1ccc(N(Cc2ccccn2)c2ncccn2)cc1)C(=O)O)c1c(Cl)cccc1Cl` (stereo not drawn) [Example 61] the IC50 (Jurkat cells; [3]) was 33 nM.
Compound `Cc1cccc(Cl)c1C(=O)NC(C/C=C/c1ccc(N(C)c2ncccn2)cc1)C(=O)O` (stereo not drawn) [Example 67, (E)-2-(2-Chloro-6-methylbenzamido)-5-[4-(methyl-pyrimidin-2-ylamino)phenyl]pent-4-enoic acid] has an IC50 (Jurkat cells; [3]) of 280 nM and an IC50 [2] of 30000 nM.
In the case of `Cc1cccc(C)c1C(=O)NC(C/C=C/c1ccc(N(C)c2ncccn2)cc1)C(=O)O` (stereo not drawn) [Example 69, (E)-2-(2,6-Dimethylbenzamido)-5-[4-(methyl-pyrimidin-2-ylamino)phenyl]pent-4-enoic acid], the IC50 (Jurkat cells; [3]) is reported as 530 nM.
With `COC(=O)C(C/C=C/c1ccc(N(CCC#N)c2ncccn2)cc1)NC(=O)c1c(F)cccc1F` (stereo not drawn) [Example 70, (E)-5-[4-((2-Cyano-ethyl)-pyrimidin-2-yl-amino)-phenyl]-2-(2,6-difluorobenzamido)-pent-4-enoic acid methyl ester] the bioavailability [1] was 63.4% and the clearance [1] was 8.87 mL/min/kg.

Source: patent publication US7566724B2, “Glycine derivative and use thereof” (Toray Industries, Inc., priority 2004, dated 2009)
